“Also recorded” adds a separate entry of the source.
Legend:
V. cholerae [1] = assay: MBEC static crystal-violet biofilm assay, V. cholerae; assay type: cell-based, Vibrio cholerae; settings: for inhibition of V. cholerae biofilm development: 100 μM, MBEC crystal-violet assay
P. aeruginosa CF-145 [2] = assay: MBEC static crystal-violet biofilm assay, P. aeruginosa CF-145; assay type: cell-based, Pseudomonas aeruginosa
Protocol: (§1) Biofilm formation was measured under both static and flow conditions. For the static condition, we used quantitative crystal violet assay on polystyrene 96-well and MBEC plates (Biosurface Technologies, Bozeman Mont.) as described previously. The MBEC technology is a 96-well plate cover containing 96 polystyrene pegs that sit in the 96 wells of a conventional plate. Briefly, overnight grown cultures were standardized to 0.1 OD595, 200 μL was transferred to the wells of a 96-well polystyrene microtiter plate (Corning, Inc., Corning, N.Y.), and the MBEC lid was placed on top of the wells. Biofilms were grown on the pegs of the lid under shaking conditions for 24 h. The lid was removed and the pegs were gently washed twice with 200 μL of phosphate-buffered saline to remove non adherent cells. Adherent biofilms on the pegs were fixed with 200 μL of 100% ethanol prior to staining for 2 min with 200 μL of 0.41% (wt/vol) crystal violet in 12% ethanol (Protocol Crystal Violet; Biochemical Sciences, Swedesboro, N.J.). […] Quantitative assessment of biofilm formation was obtained by immersing the pegs in sterile polystyrene microtiter plate containing 200 μl of 100% ethanol and incubating at room temperature for 10 min (60) and the absorbance at 595 nm was determined using a SpectraMax M5 microplate spectrophotometer system (Molecular Devices, Sunnyvale, Calif.). […]

Klebsiella pneumoniae [3] = assay: MBEC static biofilm assay, K. pneumoniae; assay type: cell-based; settings: ABC-1 between 50 and 100 μM for select pathogens, 24 hours
Protocol: as §1

Erwinia amylovora = assay: MBEC static biofilm assay, E. amylovora; assay type: cell-based; settings: 100 μM
Protocol: as §1

Shigella boydii = assay: MBEC static biofilm assay, S. boydii; assay type: cell-based; settings: 100 μM
Protocol: as §1

S. aureus strain Newman [4] = assay: MBEC static biofilm assay, S. aureus Newman; assay type: cell-based, Staphylococcus aureus; settings: 25 μM
Protocol: as §1

[5] = test system: Staphylococcus aureus MRSA strain USA3000; assay: MBEC static biofilm assay, S. aureus USA300 (CA-MRSA); assay type: cell-based; settings: 25 μM
Protocol: as §1

V. cholerae [6] = assay: Flow-cell biofilm formation (CLSM), V. cholerae; assay type: cell-based, Vibrio cholerae; settings: 10 μM, 24 hours
Protocol: For biofilm experiments under flow conditions, biofilms were grown in disposable flow cells (Stovall Life Science, Greensboro, N.C.) as described elsewhere. In brief, the inlet side of the flow cell was connected to a sterile reservoir filled with the appropriate growth medium. The outlet side was connected to a waste reservoir to create a “once-through” flow cell system. Tubing upstream of each individual cell was injected with 0.5 mL of standardized overnight culture of the test strain and the chamber was incubated in upright position at 37° C. for 1 h. Flow was then resumed with flow rate of 0.2 mL/min for V. cholerae, P. aeruginosa, S. boydii, S. aureus and K. pneumoniae, and a flow rate of 0.15 mL/min for E. amylovora. The non-adherent bacteria were eventually flushed by the flow of the medium thereby replacing the volume of the flow cell once every minute. Biofilm formation on the flow cell was imaged both macroscopically and microscopically at 24 h and 48 h. […]
For CLSM analysis of biofilms, the medium flow was stopped and fluorescent dyes syto-9 and propidium iodide (Molecular Probes, Eugene, Oreg., USA) were injected into the flow cell chamber and incubated for 30 min in the dark. […] Thickness of the biofilm was measured starting from the z-section at the flow-cell/biofilm interface to the z-section at the top of the biofilm surface containing <5% of total biomass. […]

P. aeruginosa CF-145 [7] = assay: Flow-cell biofilm formation (CLSM), P. aeruginosa CF-145; assay type: cell-based, Pseudomonas aeruginosa; settings: 100 μM, 24 h
Klebsiella pneumoniae [8] = assay: Flow-cell biofilm formation (CLSM), K. pneumoniae; assay type: cell-based; settings: continuous flow
E. amylovora = assay: Flow-cell biofilm formation (CLSM), E. amylovora; assay type: cell-based, Erwinia amylovora; settings: 100 μM, continuous flow
S. boydii = assay: Flow-cell biofilm formation (CLSM), S. boydii; assay type: cell-based, Shigella boydii; settings: 100 μM, 48 h
S. aureus strain Newman [9] = assay: Flow-cell biofilm formation (CLSM), S. aureus Newman; assay type: cell-based, Staphylococcus aureus; settings: 25 μM, shear conditions
CA-MRSA (USA-300) = assay: Flow-cell biofilm formation (CLSM), CA-MRSA USA300; assay type: cell-based, Staphylococcus aureus; settings: 25 μM, shear conditions
[10] = test system: K. pneumoniae pre-formed biofilms; assay: Dispersal of pre-formed biofilms under flow, K. pneumoniae; assay type: cell-based, Klebsiella pneumoniae; settings: 100 μM added at 24 hours, 3, 6 and 24-hour incubation
[11] = test system: P. aeruginosa pre-formed biofilms; assay: Dispersal of pre-formed biofilms under flow, P. aeruginosa; assay type: cell-based, Pseudomonas aeruginosa; settings: 100 μM added at 24 hours, 3, 6 and 24-hour incubation
S. aureus = assay type: cell-based, Staphylococcus aureus; settings: data not shown
gram-negative bacteria = assay: Impact on growth of gram-negative bacteria; assay type: cell-based; settings: concentrations used in biofilm tests; data not shown
c-di-GMP in V. cholerae = assay type: cell-based, Vibrio cholerae
[12] = test system: c-di-GMP in P. aeruginosa PA01; assay type: cell-based, Pseudomonas aeruginosa; settings: 35 μM, data not shown
[13] = test system: diguanylate cyclase (DGC) enzyme VC2370; assay type: biochemical
Source text: (§2) Furthermore, we established an in vitro assay to measure the activity of the diguanylate cyclase (DGC) enzyme VC2370 that synthesizes c-di-GMP and the phosphodiesterase (PDE) enzyme VieA that degrades c-di-GMP.

[14] = test system: phosphodiesterase (PDE) enzyme VieA; assay type: biochemical
Source text: as §2

VC1673-lux = assay: microbe, parasite or virus in culture; settings: Vibrio cholerae, read-out: IC50 of inhibition of VC1673-lux

Question: For COc1ccc2[nH]c(SCc3ccc(C)cc3)nc2c1 [ABC-1, 5-methoxy-2-[(4-methylbenzyl)sulfanyl]-1H-benzimidazole], which “inhibition of V. cholerae biofilm development” value (V. cholerae [1]) is on record?
Answer: The value was “capable of significantly inhibiting V. cholerae biofilm development”.

Question: What about the IC50 (V. cholerae [1]; Vibrio cholerae, read-out: IC50 to inhibit biofilm formation of V. cholerae) of the same compound?
Answer: Its IC50 is 32.3 nM.

Question: And the “inhibition of biofilms, static” value (P. aeruginosa CF-145 [2]; ABC-1 between 50 and 100 μM for select pathogens, MBEC static)?
Answer: The value was “significantly inhibited biofilms”.

Question: What about the IC50 (P. aeruginosa CF-145 [2]; Pseudomonas aeruginosa, CF145, read-out: IC50 to inhibit biofilm formation of P. aeruginosa) of the same compound?
Answer: Its IC50 is 45.9 nM.

Question: What about the “inhibition of biofilms, static” value (Klebsiella pneumoniae [3]) of the same compound?
Answer: The value was “significantly inhibited biofilms; also recorded: inhibited biofilm formation”.

Question: And the “inhibition of biofilms, static” value (Erwinia amylovora)?
Answer: Its value is “significantly inhibited biofilms; also recorded: pronounced decrease”.

Question: And the “inhibition of biofilms, static” value (Shigella boydii)?
Answer: The value was “significantly inhibited biofilms; also recorded: significantly impacted”.

Question: And the “inhibition of biofilms, static” value (S. aureus strain Newman [4])?
Answer: Its value is “significantly inhibited biofilms; also recorded: statistically significant (P<0.05), but less robust than observed for most gram-negative pathogens”.

Question: What about the “inhibition of biofilms, static” value [5] of the same compound?
Answer: Its value is “significantly inhibited biofilms; also recorded: statistically significant (P<0.05), but less robust than observed for most gram-negative pathogens”.

Question: What about the “biofilm formation under flow” value (V. cholerae [6]) of the same compound?
Answer: The value was “dramatically reduced biofilm formation”.

Question: And the “biofilm formation under flow” value (P. aeruginosa CF-145 [7])?
Answer: The value was “greatly reduced biofilm formation”.

Question: And the “biofilm formation under flow” value (Klebsiella pneumoniae [8]; 24 hours)?
Answer: Its value is “inhibited biofilm formation”.

Question: What about the “fate of biofilms that did form in the presence of ABC-1” value (Klebsiella pneumoniae [8]; data not shown) of the same compound?
Answer: Its value is “began to disperse beyond 30 hours”.

Question: And the “biofilm development under flow” value (E. amylovora)?
Answer: The value was “pronounced decrease”.

Question: What about the “biofilm formation under flow” value (S. boydii) of the same compound?
Answer: Its value is “greatly reduced biofilm formation”.

Question: And the “biofilm formation under flow” value (S. aureus strain Newman [9])?
Answer: The value was “less surface area coverage and biofilms were present as small patches”.

Question: What about the “biofilm formation under flow” value (CA-MRSA (USA-300)) of the same compound?
Answer: The value was “reduced compared to the untreated condition”.

Question: And the “dispersal of pre-formed biofilms” value [10]?
Answer: The value was “did not confer any significant changes in biofilm architecture”.

Question: What about the “dispersal of pre-formed biofilms” value [11] of the same compound?
Answer: The value was “did not confer any significant changes in biofilm architecture”.

Question: What about the “concentration that inhibited the growth of S. aureus” value (S. aureus) of the same compound?
Answer: Its value is at least 50 µM.

Question: What about the “inhibition of growth of gram-negative bacteria” value (gram-negative bacteria) of the same compound?
Answer: The value was “no impact on growth; also recorded: no concentration of ABC-1 showed inhibition of growth”.

Question: What about the “intracellular c-di-GMP” value (c-di-GMP in V. cholerae) of the same compound?
Answer: Its value is “modest reduction”.

Question: And the “levels of c-di-GMP” value [12]?
Answer: The value was “no effect”.

Question: What about the “in vitro activity of DGC VC2370” value [13] of the same compound?
Answer: Its value is “no significant impact”.

Question: What about the “in vitro activity of PDE VieA” value [14] of the same compound?
Answer: The value was “no significant impact”.

Question: What about the IC50 (VC1673-lux) of the same compound?
Answer: Its IC50 is under 10000 nM.

Question: Which results are given for COc1ccc2[nH]c(SCc3ccc(Cl)cc3)nc2c1 [ABC-2, 2-[(4-chlorobenzyl)thio]-5-methoxy-1H-benzimidazole]?
Answer: inhibition of V. cholerae biofilm development (V. cholerae [1]): capable of significantly inhibiting V. cholerae biofilm development; IC50 (VC1673-lux): < 10000 nM
